Data from PubChem BioAssay (NCI).
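Grown in 96-well plates, cells were treated for 48 hours with each compound at five concentrations. Insufficient inhibition: endpoint recorded as highest concentration tested. GI50 = concentration required for 50% inhibition of growth. TGI denotes the concentration required for complete inhibition of growth.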

What was measured:
Test in all cases: NCI-60 cell line screen, 48 h
COLO 205 colon = tested on: COLO 205 colon
DU-145 prostate = tested on: DU-145 prostate
NCI-H226 lung = tested on: NCI-H226 lung
NCI-H460 lung = tested on: NCI-H460 lung
OVCAR-3 ovarian = tested on: OVCAR-3 ovarian
RXF 393 renal = tested on: RXF 393 renal
SN12C renal = tested on: SN12C renal
UACC-62 melanoma = tested on: UACC-62 melanoma
UO-31 renal = tested on: UO-31 renal
SNB-75 CNS = tested on: SNB-75 CNS

SMILES | GI50 (COLO 205 colon) | TGI (COLO 205 colon) | GI50 (DU-145 prostate) | TGI (DU-145 prostate) | GI50 (NCI-H226 lung) | TGI (NCI-H226 lung) | GI50 (NCI-H460 lung) | TGI (NCI-H460 lung) | GI50 (OVCAR-3 ovarian) | TGI (OVCAR-3 ovarian) | GI50 (RXF 393 renal) | TGI (RXF 393 renal) | GI50 (SN12C renal) | TGI (SN12C renal) | GI50 (UACC-62 melanoma) | TGI (UACC-62 melanoma) | GI50 (UO-31 renal) | TGI (UO-31 renal) | TGI (SNB-75 CNS) | GI50 (SNB-75 CNS)
COc1ccc(-c2cncn2-c2cc(OC)c(OC)c(OC)c2)cc1 | 0.103 µM | 9.7 µM | 0.151 µM | 9.92 µM | 1.97 µM | 82.6 µM | 0.367 µM | > 84.6 µM | 0.0282 µM | 0.0641 µM | 0.448 µM | 21.3 µM | 0.527 µM | > 100 µM | 0.124 µM | > 33.7 µM | 0.0936 µM | 18.2 µM |  | 
CCOC(=O)c1cc(-c2ccc(-c3cc(C(=O)OCC)c(C#N)c(N)c3C#N)cc2)c(C#N)c(N)c1C#N |  | > 100 µM |  |  |  | > 100 µM |  | > 100 µM |  | > 100 µM |  | > 100 µM |  | > 100 µM |  | > 100 µM |  | > 100 µM |  | 
COc1ccc(C2=Nc3ccccc3SC(C)C2)cc1OC (stereo not drawn) |  | 40.6 µM |  |  |  | 36.6 µM |  | 36.3 µM |  | 30.8 µM |  |  |  | 42 µM |  | 32.4 µM |  | 32.4 µM | 35 µM | 
Cc1c(C(=O)O)n(C)c(=O)n(C)c1=O |  | > 100 µM |  |  |  | > 100 µM |  | > 100 µM |  | > 100 µM |  | > 100 µM |  | > 100 µM |  | > 100 µM |  | > 100 µM | > 100 µM | 
COc1cc(C2C3=C(COC3=O)N(CCO)c3cc4c(cc32)OCCO4)cc(OC)c1OC (stereo not drawn) | 0.15 µM | 0.409 µM | 0.345 µM | 0.943 µM | 4.48 µM | > 50 µM | 0.208 µM | 1.68 µM | 0.135 µM | 0.315 µM |  |  |  | > 50 µM |  | > 50 µM | 1.82 µM | > 50 µM | > 50 µM | 0.183 µM
CCOC(=O)C(Cc1ccc(N(CCCl)CCCl)cc1)NC(=O)C(Cc1ccccc1)NC=O (stereo not drawn) |  | 0.322 µM |  | 0.38 µM |  |  |  | 0.604 µM |  | 0.29 µM |  | 0.226 µM |  | 0.294 µM |  | 0.254 µM |  | 0.273 µM |  | 
C/C(CN1C(=O)c2ccccc2C1=O)=N\NS(=O)(=O)c1cccc(C(=O)O)c1 |  | > 100 µM |  |  |  | > 100 µM |  | > 100 µM |  | > 100 µM |  |  |  | > 100 µM |  | > 100 µM |  | > 100 µM | > 100 µM | 
Cc1ccc(N=C[N-]c2ccc(C)cc2)cc1.Cc1ccc(N=C[N-]c2ccc(C)cc2)cc1.O=C([O-])C(F)(F)F.O=C([O-])C(F)(F)F.[OH3+].[OH3+].[Rh+2].[Rh+2] | 36.3 µM | > 100 µM |  |  | 89.6 µM | > 100 µM | > 100 µM | > 100 µM | 62 µM | > 100 µM | 15.1 µM | 33.1 µM | 34.9 µM | > 100 µM | 32.4 µM | 87.9 µM | > 100 µM | > 100 µM | 53.9 µM | 16.8 µM
Cc1ccc(C)c(N2C(=O)C(=O)C(c3nc4ccccc4o3)C(=O)C2=O)c1 |  | 95.4 µM |  |  |  | > 100 µM |  | > 100 µM |  | > 100 µM |  | > 100 µM |  | > 100 µM |  | > 100 µM |  | > 100 µM | > 100 µM | 
COC1CC(O)C(OC(=O)c2ccccc2)C(C)O1 (stereo not drawn) |  | > 100 µM |  |  |  | > 100 µM |  | > 100 µM |  | > 100 µM |  |  |  | > 100 µM |  | > 100 µM |  |  |  | 
